Results on 8 compounds are retold here after US20230416199A1, “INHIBITORS OF AMINO ACID TRANSPORT” (ICAHN SCHOOL OF MEDICINE AT MOUNT SINAI, priority 2020, published 2023).

What all share (format): cell-based
The target in experiment [1] is T1, rASCT2 (Rattus norvegicus, UniProt D3ZJ25).
T1 construct: expressed in transfected cells; host or cells: HEK293 (ATCC CRL-11268), transient transfection
T1 sequence (D3ZJ25 1-555): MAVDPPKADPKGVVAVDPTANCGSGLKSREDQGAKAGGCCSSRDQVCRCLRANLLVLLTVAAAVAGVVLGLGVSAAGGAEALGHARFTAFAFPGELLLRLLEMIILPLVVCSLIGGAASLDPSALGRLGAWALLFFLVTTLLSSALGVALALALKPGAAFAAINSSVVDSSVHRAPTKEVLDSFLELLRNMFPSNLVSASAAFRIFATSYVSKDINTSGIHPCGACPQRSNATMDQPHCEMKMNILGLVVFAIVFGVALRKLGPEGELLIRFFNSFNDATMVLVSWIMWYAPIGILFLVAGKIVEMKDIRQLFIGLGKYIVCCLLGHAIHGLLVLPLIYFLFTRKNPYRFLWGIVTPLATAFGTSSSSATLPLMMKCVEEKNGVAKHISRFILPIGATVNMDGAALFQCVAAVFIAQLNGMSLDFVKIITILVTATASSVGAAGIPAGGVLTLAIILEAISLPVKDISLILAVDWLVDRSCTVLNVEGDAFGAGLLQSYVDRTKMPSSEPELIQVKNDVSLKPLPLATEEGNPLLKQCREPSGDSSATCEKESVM
Nature of the experiment: Electrophysiology (whole-cell current recording) of transfected HEK293 cells, rASCT2. The following applies: apparent Ki in the absence of substrate, HEK293, mean ± SD; read-out: Ki rASCT2. The method, boiled down: (§1)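 HEK293 cells transiently transfected, recorded whole-cell 24-40 h later with rapid compound application; external buffer 140 mM NaCl, 10 mM HEPES pH 7.40; pipette 130 mM NaSCN with 10 mM alanine (ASCT2) or 10 mM glutamate (EAAT1). Dose-response fitted to Michaelis-Menten-like equation giving apparent Ki without substrate; mean±SD.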

Experiment [2] has as its target T2, hASCT2 (Homo sapiens, UniProt Q15758).
T2 construct: expressed in transfected cells; host or cells: HEK293 (ATCC CRL-11268), transient transfection
T2 sequence (Q15758 1-541): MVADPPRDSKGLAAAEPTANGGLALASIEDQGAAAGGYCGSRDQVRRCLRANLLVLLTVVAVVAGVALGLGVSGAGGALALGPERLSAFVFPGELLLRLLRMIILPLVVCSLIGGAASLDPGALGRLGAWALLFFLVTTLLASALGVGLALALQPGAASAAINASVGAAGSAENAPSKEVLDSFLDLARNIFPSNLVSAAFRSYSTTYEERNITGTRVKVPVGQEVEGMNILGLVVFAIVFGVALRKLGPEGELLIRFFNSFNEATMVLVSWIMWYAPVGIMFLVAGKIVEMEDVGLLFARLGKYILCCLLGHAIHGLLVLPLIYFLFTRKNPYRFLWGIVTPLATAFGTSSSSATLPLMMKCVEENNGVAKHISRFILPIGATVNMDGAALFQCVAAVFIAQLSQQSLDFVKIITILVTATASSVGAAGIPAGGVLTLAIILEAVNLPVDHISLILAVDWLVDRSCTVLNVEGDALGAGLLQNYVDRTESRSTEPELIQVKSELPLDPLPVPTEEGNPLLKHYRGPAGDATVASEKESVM
The experiment is described as follows: Electrophysiology (whole-cell current recording) of transfected HEK293 cells, hASCT2. The following applies: apparent Ki in the absence of substrate, HEK293, mean ± SD; read-out: Ki hASCT2. The gist of the method:
as §1

The target of experiment [3] is T3, EAAT1 (Homo sapiens, UniProt P43003).
T3 construct: expressed in transfected cells; host or cells: HEK293 (ATCC CRL-11268), transient transfection
Nature of the experiment: Electrophysiology specificity experiment in transfected HEK293 cells, EAAT1. The following applies: apparent Ki, HEK293, internal solution 10 mM glutamate, mean ± SD. The procedure:
(§2) Human embryonic kidney 293 (HEK293, ATCC CRL-11268) cells were cultured in DMEM media supplemented with 10% (v v) fetal bovine serum (FBS), 2 mM glutamine, 1% penicillin streptomycin solution, 1 mM sodium pyruvate and non-essential amino acids. Cells were maintained at 37° C. in a fully humidified atmosphere containing 5% CO2. rASCT2, hASCT2, hASCT1, EAAT1, EAAT2, EAAC1, EAAT5 and YFP complementary DNAs were each used to transiently transfect HEK293 using POLYPLUS Jet-prime transfection reagent. Cells were analyzed using electrophysiological techniques 24-40 hours after transfection.
(§3) Stock solutions of inhibitor was prepared in dimethyl sulfoxide (DMSO) up to 100 mM. Dilutions to working concentrations were made using external buffer. […] For rASCT2, hASCT2 and hASCT1, external buffer contained 140 mM NaCl, 2 mM MgCl2, 2 mM CaCl2), and 10 mM HEPES, pH 7.40 while internal pipette solution comprised of 130 mM NaSCN, 2 mM MgCl2, 10 mM EGTA, 10 mM HEPES and 10 mM alanine, pH 7.40. For specificity experiments with EAAT1, EAAT2, EAAC1 and EAAT5, internal solution contained 10 mM glutamate instead of alanine. Compounds were applied to HEK293 cells expressing DNA of interest suspended from a current recording electrode in whole cell configuration through a rapid solution exchange device. Cells are immersed in external buffer bath used to dissolve the inhibitors. The open pipette resistance was between 3 and 6 MΩ. Series resistance was not compensated in these experiments due to relatively small currents. Currents traces were recorded using an Adams and List EPC7 amplifier and digitized using a Molecular Devices Digidata A/D converter.
(§4) Linear and nonlinear curve fitting of the experimental data were analyzed using MicroCal Origin software. Nonlinear dose-response relationships were fitted with a Michaelis-Menten-like equation to obtain apparent Ki values in the absence of substrate (see TABLE 2 for Ki values). The figures show representative current traces and dose-response curves for hACST2 and rASCT2, used to obtain Ki values in TABLE 2 for compound SN 40. At least four experiments were performed with at least three different cells. Error bars in all graphs, e.g., in FIG. 1B and FIG. 1C and tables (Ki values) represent mean±SD.

In experiment [4] the target is T4, EAAT2 (Homo sapiens, UniProt P43004).
T4 construct: expressed in transfected cells; host or cells: HEK293 (ATCC CRL-11268), transient transfection
Nature of the experiment: Electrophysiology specificity experiment in transfected HEK293 cells, EAAT2. The following applies: apparent Ki, HEK293, internal solution 10 mM glutamate, mean ± SD; read-out: Ki EAAT2. The method, then:
as §2, §3, §4

Experiment [5] has as its target T5, EAAT5 (Homo sapiens, UniProt O00341).
T5 construct: expressed in transfected cells; host or cells: HEK293 (ATCC CRL-11268), transient transfection
The experiment is described as follows: Electrophysiology specificity experiment in transfected HEK293 cells, EAAT5. The following applies: apparent Ki, HEK293, internal solution 10 mM glutamate, mean ± SD. The method, then: as §2, §3, §4

T5 sequence (O00341 whole entry, species assumed): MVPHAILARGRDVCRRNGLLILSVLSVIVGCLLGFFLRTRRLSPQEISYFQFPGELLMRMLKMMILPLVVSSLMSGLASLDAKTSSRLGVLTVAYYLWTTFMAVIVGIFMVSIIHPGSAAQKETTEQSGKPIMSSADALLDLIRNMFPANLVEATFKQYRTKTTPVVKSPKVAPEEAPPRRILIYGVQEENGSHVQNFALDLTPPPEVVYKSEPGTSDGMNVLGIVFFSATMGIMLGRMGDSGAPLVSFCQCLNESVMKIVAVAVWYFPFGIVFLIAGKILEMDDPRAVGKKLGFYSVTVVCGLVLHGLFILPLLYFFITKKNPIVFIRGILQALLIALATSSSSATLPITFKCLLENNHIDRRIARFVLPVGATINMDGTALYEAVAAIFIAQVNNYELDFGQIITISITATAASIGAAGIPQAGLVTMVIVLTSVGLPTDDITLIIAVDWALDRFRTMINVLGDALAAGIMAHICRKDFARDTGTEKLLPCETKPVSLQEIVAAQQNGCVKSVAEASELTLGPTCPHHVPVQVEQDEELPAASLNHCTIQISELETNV
T4 sequence (P43004 whole entry, species assumed): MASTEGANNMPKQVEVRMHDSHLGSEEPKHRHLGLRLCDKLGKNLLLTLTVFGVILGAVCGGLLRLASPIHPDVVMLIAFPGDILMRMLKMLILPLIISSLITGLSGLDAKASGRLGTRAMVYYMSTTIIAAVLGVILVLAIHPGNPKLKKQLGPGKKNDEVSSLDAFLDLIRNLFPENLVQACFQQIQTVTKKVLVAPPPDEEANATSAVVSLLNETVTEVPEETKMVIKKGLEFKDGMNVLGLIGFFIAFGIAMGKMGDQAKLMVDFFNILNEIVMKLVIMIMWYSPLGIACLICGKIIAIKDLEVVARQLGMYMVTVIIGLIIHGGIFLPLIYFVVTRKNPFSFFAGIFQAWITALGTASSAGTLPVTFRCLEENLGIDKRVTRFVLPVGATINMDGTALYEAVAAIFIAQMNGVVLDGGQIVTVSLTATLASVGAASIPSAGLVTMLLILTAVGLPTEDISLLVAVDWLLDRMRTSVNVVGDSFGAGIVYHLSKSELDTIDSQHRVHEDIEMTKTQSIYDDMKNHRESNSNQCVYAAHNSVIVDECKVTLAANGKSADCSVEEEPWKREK
T3 sequence (P43003 whole entry, species assumed): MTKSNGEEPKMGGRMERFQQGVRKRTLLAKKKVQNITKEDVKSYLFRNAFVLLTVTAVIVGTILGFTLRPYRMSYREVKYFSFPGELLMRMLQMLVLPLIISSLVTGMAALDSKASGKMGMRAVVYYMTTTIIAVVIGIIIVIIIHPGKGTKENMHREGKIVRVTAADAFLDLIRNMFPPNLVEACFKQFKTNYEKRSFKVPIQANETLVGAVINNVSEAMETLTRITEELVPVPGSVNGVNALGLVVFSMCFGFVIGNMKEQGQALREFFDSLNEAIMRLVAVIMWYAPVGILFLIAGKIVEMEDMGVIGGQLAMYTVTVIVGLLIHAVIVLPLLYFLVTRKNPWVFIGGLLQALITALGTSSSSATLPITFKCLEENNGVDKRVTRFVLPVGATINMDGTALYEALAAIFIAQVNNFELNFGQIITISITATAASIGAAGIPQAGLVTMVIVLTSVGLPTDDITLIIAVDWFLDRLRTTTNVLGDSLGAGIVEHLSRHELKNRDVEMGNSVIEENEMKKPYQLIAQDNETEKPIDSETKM

As for `O=C(O[C@@H]1CN[C@H](C(=O)O)C1)c1ccc(-c2ccccc2)cc1` [SN 05], the Ki in experiment [1] came to 0.73 ± 0.1 µM; in experiment [2] it was 0.87 ± 0.1 µM; in experiment [3], 3.7 ± 0.2 µM; in experiment [4] it was 7.25 ± 1.5 µM; in experiment [5], 2.22 ± 0.5 µM.

Regarding `O=C(O)[C@@H]1C[C@H](OCc2ccc(-c3ccccc3)cc2)CN1` [SN 39], the Ki in experiment [1] amounted to 1.13 ± 0.1 µM; in experiment [2], 0.98 ± 0.1 µM; in experiment [3] it was 0.93 ± 0.1 µM; in experiment [4] it was 2.09 ± 0.5 µM; in experiment [5], 1.41 ± 0.3 µM.

In the case of `O=C(O[C@@H]1CN[C@H](C(=O)O)C1)c1ccc(-c2ccccc2)nc1` [SN 19], the Ki is 0.89 ± 0.2 µM in experiment [1], 7.93 ± 0.9 µM in experiment [2], 10.2 ± 2.5 µM in experiment [3] and 7.95 ± 1.1 µM in experiment [4].

On to `Cc1ccccc1-c1ccc(C(=O)O[C@@H]2CN[C@H](C(=O)O)C2)cc1` [SN 10], for which the Ki in experiment [1] was determined as 0.97 ± 0.1 µM; in experiment [2] it was 1.12 ± 0.1 µM; in experiment [3] it was 1 ± 0.1 µM; in experiment [4], 1.3 ± 0.1 µM; in experiment [5], 2.5 ± 0.9 µM.

With `O=C(O[C@@H]1CN[C@H](C(=O)O)C1)c1ccc(-c2ccc(F)cc2)cc1` [SN 08], the Ki stood at 0.65 ± 0.04 µM in experiment [1]; 0.74 ± 0.1 µM in experiment [2]; 0.4 ± 0.1 µM in experiment [3]; 1.29 ± 0.3 µM in experiment [4]; 2.4 ± 0.7 µM in experiment [5].

On to `Cc1ccccc1-c1ccc(C(=O)O[C@@H]2CN[C@H](C(=O)O)C2)cc1C` [SN 11], for which the Ki in experiment [1] was determined as 0.87 ± 0.1 µM; in experiment [2], 9.13 ± 1.7 µM; in experiment [3] it was 4.75 ± 0.3 µM; in experiment [4] it was 3.14 ± 0.5 µM; in experiment [5], 1.17 ± 0.1 µM.

On to `O=C(O[C@@H]1CN[C@H](C(=O)O)C1)c1ccc(-c2ccc(C(F)(F)F)cc2)cc1` [SN 09], for which the Ki in experiment [1] was 0.27 ± 0.05 µM; in experiment [2], 1.05 ± 0.2 µM; in experiment [3], 1 ± 0.3 µM; in experiment [4], 0.97 ± 0.1 µM; in experiment [5] it was 1.09 ± 0.2 µM.

Regarding `N[C@@H](COC(=O)c1ccc(NC(=O)c2ccccc2)cc1)C(=O)O` [SN 25], the Ki is 4.4 ± 1.5 µM in experiment [1]; 22.6 ± 3.7 µM in experiment [2]; 9.57 ± 1.6 µM in experiment [3]; 11 ± 1.3 µM in experiment [4]; 12.3 ± 3.2 µM in experiment [5].
